What all share (type): cell-based
For assay [1], the system named is Fusarium graminearum PH-1. The following applies: for MIC, in-vitro antifungal activity against F. graminearum: F. graminearum PH-1, 48 hours; for F. graminearum PH-1 MIC Day1: MIC Day 1, 96-well plate, resazurin cell viability.
Another assay concerns Botrytis cinerea T4. The note with it: for MIC, in-vitro antifungal activity against B. cinerea: 48 hours.
In assay [2] the test system is Zymoseptoria tritici IPO323.

≈ marks a conversion by molar mass, not a printed value.

For `C[C@@H]1[C@H](O)[C@@H](C)/C=C/C=C/C=C/C=C/C=C/C=C/C=C/[C@H](O[C@@H]2O[C@H](C)[C@@H](O)[C@H](N)[C@@H]2O)C[C@@H]2O[C@](O)(C[C@@H](O)C[C@@H](O)[C@H](O)CC[C@@H](O)C[C@@H](O)CC(=O)O[C@H]1C)C[C@H](O)[C@H]2C(=O)O` [Amphotericin-B, reference compound], in assay [1], the “MIC, in-vitro antifungal activity against F. graminearum” value (“MIC … against F. graminearum” for short) came out at 6 µM (≈ 5.54 µg/mL) and the “F. graminearum PH-1 MIC Day1” value was found to be 6 µM. In the assay on Botrytis cinerea T4, the “B. cinerea T4 MIC Day1” value worked out at 3 µM and the “MIC, in-vitro antifungal activity against B. cinerea” value stood at 3 µM (≈ 2.77 µg/mL). Further, in assay [2], the “MIC against Z. tritici on day 1” value came to 0.84 µM (≈ 0.776 µg/mL), the “MIC against Z. tritici on day 7” value turned out to be 5.44 µM (≈ 5.03 µg/mL), the “MIC against Z. tritici on day 14” value was found to be 8.92 µM (≈ 8.24 µg/mL) and the “Z. tritici IPO323 MIC Day 1” value was 0.84 µM. Besides, in assay [2], the “Z. tritici IPO323 MIC Day 7” value was 5.44 µM and the “Z. tritici IPO323 MIC Day 14” value came out at 8.92 µM.

As to “PD81.1.1: Pinus sylvestris wild-type defensin SEQ ID NO: 534 with N-terminal alanine, expressed in Pichia pastoris (RMCKTPSGKFKGYCVSSTNCKNVCRTEGFPTGSCDFHVASRKCYCYKPC; N-terminal alanine added; listed as Pinus sylvestris)”, the “F. graminearum PH-1 MIC Day1” value in assay [1] was found to be 1.5 µM. Moreover, in the assay with Botrytis cinerea T4, the “B. cinerea T4 MIC Day1” value amounted to 1 µM and the “MIC, in-vitro antifungal activity against B. cinerea” value amounted to 1 µM. Moreover, in assay [2], the “Z. tritici IPO323 MIC Day 1” value amounted to 0.5 µM, the “Z. tritici IPO323 MIC Day 7” value was 0.75 µM and the “Z. tritici IPO323 MIC Day 14” value is 3 µM.

Take “PD83.1.1: Eucalyptus grandis wild-type defensin SEQ ID NO: 542 with N-terminal alanine, expressed in Pichia pastoris (RMCESQSHKFHGLCMSDRTCVVVCKEEDFDDGKCRGFRHRCFCRKPC; N-terminal alanine added; listed as Eucalyptus grandis)”: in assay [1], the “F. graminearum PH-1 MIC Day1” value is over 12 µM. The “B. cinerea T4 MIC Day1” value in the assay with Botrytis cinerea T4 is over 12 µM.

For the molecule “PD95.1.1: Mimulus guttatus wild-type defensin SEQ ID NO: 598 with N-terminal alanine, expressed in Pichia pastoris (RHCESPSHRFKGICVRKSNCAAICQTEGFSSGKCRGFRSRCVCIKHC; N-terminal alanine; listed as Mimulus guttatus)”, in assay [1], the “MIC … against F. graminearum” value was 0.75 µM and the “F. graminearum PH-1 MIC Day1” value stood at 0.75 µM. Besides, the “B. cinerea T4 MIC Day1” value in the assay with Botrytis cinerea T4 worked out at 0.75 µM.

As for “PD99.1.1: Theobroma cacao wild-type defensin SEQ ID NO: 616 with N-terminal alanine, expressed in Pichia pastoris (KLCQKRSKTWTGPCIKTKNCDHQCRKWEKAQHGACHWQWPGFACFCYVNC; N-terminal alanine; Theobroma cacao)”, in assay [1], the “MIC … against F. graminearum” value is 0.75 µM and the “F. graminearum PH-1 MIC Day1” value was 0.75 µM. Also, the “B. cinerea T4 MIC Day1” value with Botrytis cinerea T4 came to 0.75 µM.

In the case of “PD114.1.1: Lupinus albus wild-type defensin SEQ ID NO: 679 with N-terminal alanine, expressed in Pichia pastoris (RTCKSKSQRYKGSCYSDNNCAIICEGEGFTGGKCHGFFCKCWCKRPCL; N-terminal alanine added; listed as Lupinus albus)”, the “F. graminearum PH-1 MIC Day1” value in assay [1] was over 12 µM. In addition, in the assay with Botrytis cinerea T4, the “B. cinerea T4 MIC Day1” value was over 12 µM.

As to “PD120.1.1: Setaria italica wild-type defensin SEQ ID NO: 706 with N-terminal alanine, expressed in Pichia pastoris (DRCETHSRTYKGRCNNHNCWSICITEGNTGGFCKGTLLLKCMCTSEC; N-terminal alanine added; listed as Setaria italica)”, in assay [1], the “F. graminearum PH-1 MIC Day1” value is 12 µM. The “B. cinerea T4 MIC Day1” value with Botrytis cinerea T4 is over 12 µM.

The values above are taken from US20240239854A1, “ANTIMICROBIAL PEPTIDES AND MODIFICATIONS THEREOF” (Donald Danforth Plant Science Center, priority 2022, published 2024).
